PMC2784637 (Biochemistry, 2009)

Biological target: T1, cyt bc1 (ubihydroquinone:cytochrome c oxidoreductase) (Rhodobacter capsulatus, UniProt D5ANZ2+D5ANZ3)
T1 sequence (D5ANZ3 2-437): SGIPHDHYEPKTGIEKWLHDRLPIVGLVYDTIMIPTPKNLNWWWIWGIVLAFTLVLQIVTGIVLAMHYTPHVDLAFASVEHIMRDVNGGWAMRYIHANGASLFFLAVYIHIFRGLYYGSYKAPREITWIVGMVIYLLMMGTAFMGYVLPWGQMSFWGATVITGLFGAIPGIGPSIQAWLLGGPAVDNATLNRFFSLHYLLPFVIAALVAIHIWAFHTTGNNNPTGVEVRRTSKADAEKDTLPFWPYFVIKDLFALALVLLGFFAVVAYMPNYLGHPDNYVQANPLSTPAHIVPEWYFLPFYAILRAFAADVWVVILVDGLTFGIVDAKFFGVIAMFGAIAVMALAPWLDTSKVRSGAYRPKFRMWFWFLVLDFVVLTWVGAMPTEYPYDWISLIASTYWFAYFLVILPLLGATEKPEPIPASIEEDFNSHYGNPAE
T1 sequence (D5ANZ2 1-191): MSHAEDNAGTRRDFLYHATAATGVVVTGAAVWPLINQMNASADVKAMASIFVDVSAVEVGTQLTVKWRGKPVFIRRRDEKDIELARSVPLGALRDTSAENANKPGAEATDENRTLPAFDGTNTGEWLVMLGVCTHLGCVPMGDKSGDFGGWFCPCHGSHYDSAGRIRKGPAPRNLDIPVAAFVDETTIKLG
T1 sequence (D5ANZ4 22-279 partner): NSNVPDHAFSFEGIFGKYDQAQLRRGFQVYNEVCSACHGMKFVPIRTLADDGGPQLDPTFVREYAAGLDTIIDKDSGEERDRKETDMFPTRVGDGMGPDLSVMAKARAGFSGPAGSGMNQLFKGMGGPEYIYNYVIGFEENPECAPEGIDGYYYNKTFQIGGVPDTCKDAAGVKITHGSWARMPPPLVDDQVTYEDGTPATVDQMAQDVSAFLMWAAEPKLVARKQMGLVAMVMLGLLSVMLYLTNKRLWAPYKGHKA
Experiment: light-activated cyt b reduction and cyt c rereduction kinetics
Type: biochemical
Conditions: chromatophore membranes, 10 uM, pH 7.0, Eh 100 mV; Qo site

In the case of `CO/C(=C/C(N)=O)[C@H](C)[C@H](/C=C/c1csc(-c2csc([C@@H](C)/C=C/C=C/C(C)C)n2)n1)OC` [myxothiazol], the “light-activated cyt b reduction and cyt c rereduction kinetics” value is reported as “addition of myxothiazol completely abolished the kinetics by displacing the Qo site occupant”.
